Where a name gives a salt, the structure may show the parent alone.
Biological target: RIPK1 (recombinant GST-RIPK1 kinase domain, residues 1-327) (Homo sapiens (Human), UniProt Q13546)
Assay: RIPK1-ADP-Glo Enzymatic Assay
Format: biochemical
Conditions: ADP-Glo; 25 nM GST-RIPK1, 300 μM ATP; assay lower limit ~25 nM; read-out: RIPK1 V0 Ec50
Outline: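 Using dephosphorylated MBP (3 μM) as substrate and 300 μM ATP, 25 nM baculovirus-produced enzyme was reacted for 150 min after a 30-min compound pre-incubation. Luminescent ADP detection followed; lower confidence limit ~25 nM.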

Chain of RIPK1 (recombinant GST-RIPK1 kinase domain, residues 1-327) (Q13546 1-327): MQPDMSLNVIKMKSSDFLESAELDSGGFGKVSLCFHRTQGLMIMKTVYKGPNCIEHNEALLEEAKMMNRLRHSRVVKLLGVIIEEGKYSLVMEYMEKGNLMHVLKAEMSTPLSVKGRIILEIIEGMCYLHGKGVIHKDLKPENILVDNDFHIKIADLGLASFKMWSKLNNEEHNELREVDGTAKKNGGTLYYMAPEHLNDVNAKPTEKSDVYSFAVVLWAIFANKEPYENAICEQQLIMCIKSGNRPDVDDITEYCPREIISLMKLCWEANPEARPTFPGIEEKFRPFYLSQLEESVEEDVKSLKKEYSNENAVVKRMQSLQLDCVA

| EC50 | SMILES |
| --- | --- |
| 0.0427 µM | Cc1ocnc1C(=O)N1CCC2(CC1)O[C@@H]1CC[C@@H](c3cccc(F)c3)N1C2=O [Example 6.128, (5′S,7a′R)-5′-(3-fluorophenyl)-1-(5-methyl-1,3-oxazole-4-carbonyl)tetrahydro-3′H-spiro[piperidine-4,2′-pyrrolo[2,1-b] [1,3]oxazol]-3′-one] |
| < 0.025 µM | O=C1N2[C@@H](CC[C@H]2c2ccccc2)OC12CCN(c1ccc(-c3ncco3)cn1)CC2 [Example 21.16, (5′S,7a′R)-1-[5-(1,3-oxazol-2-yl)pyridin-2-yl]-5′-phenyltetrahydro-3′H-spiro[piperidine-4,2′-pyrrolo[2,1-b][1,3]oxazol]-3′-one] |
| 0.0968 µM | N#Cc1cc(F)cc(C(=O)N2CCC3(CC2)O[C@@H]2CC[C@@H](c4cc(F)cc(F)c4)N2C3=O)c1 [Example 5.15, 3-((5′S,7a′R)-5′-(3,5-difluorophenyl)-3′-oxo-tetrahydro-3′H-spiro [piperidine-4,2′-pyrrolo-[2,1-b]oxazole]-1-carbon-yl)-5-fluorobenzonitrile] |
| 0.0892 µM | O=C1N2[C@@H](CC[C@H]2c2cc(F)cc(F)c2)OC12CCN(c1ncc(F)cn1)CC2 [Example 4.67, (5′S,7a′R)-5′-(3,5-difluorophenyl)-1-(5-fluoropyrimidin-2-yl)tetrahydro-3′H-spiro[piperidine-4,2′-pyrrolo[2,1-b] [1,3]oxazol]-3′-one] |
| < 0.025 µM | O=C1N2[C@@H](CO[C@H]2c2cc(F)cc(F)c2)CC12CCN(c1ccnc3ccnn13)CC2 (stereo in doubt) [Example 4.147, 3′-(3,5-difluorophenyl)-1-(pyrazolo[1,5-a]pyrimidin-7-yl)dihydro-1′H,3′H,5′H-spiro[piperidine-4,6′-pyrrolo[1,2-c] [1,3]oxazol]-5′-one] |
| < 0.025 µM | O=C1N2[C@@H](CC[C@H]2c2cc(F)cc(F)c2)OC12CCN(c1ncnn3cccc13)CC2 [Example 13.11, (5′S,7a′R)-5′-(3,5-difluorophenyl)-1-(pyrrolo [2,1-f][1,2,4]triazin-4-yl)tetrahydro-3′H-spiro[piperidine-4,2′-pyrrolo[2,1-b]oxazol]-3′-one, TFA salt] |
| 0.05 µM | CC1CN(c2cc(C#N)ncn2)CCC12O[C@@H]1CC[C@@H](c3ccccc3)N1C2=O (stereo partly drawn) [Example 4.236, 6-[(4R,5′S,7a′R)-3-methyl-3′-oxo-5′-phenyltetrahydro-1H,3′H-spiro[piperidine-4,2′-pyrrolo[2,1-b] [1,3]oxazol]-1-yl]pyrimidine-4-carbonitrile] |
| 0.672 µM | O=C1N2[C@@H](CC[C@H]2c2cc(F)cc(F)c2)OC12CCN(S(=O)(=O)c1cccc(F)c1)CC2 [Example 8.4, (5′S,7a′R)-5′-(3,5-difluorophenyl)-1-[(3-fluorophenyl)sulfonyl] tetrahydro-3′H-spiro[piperidine-4,2′-pyrrolo[2,1-b][1,3]oxazol]-3′-one] |
| < 0.025 µM | O=C(c1ccc(F)cc1F)N1CCC2(CC1)O[C@@H]1CC[C@@H](c3ccccc3)N1C2=O [Example 5.11, (5′S,7a′R)-1-(2,4-difluoro-benzene-1-carbonyl)-5′-phenyltetrahydro-3′H-spiro[piperidine-4,2′-pyrrolo[2,1-b][1,3]oxazol]-3′-one] |
| < 0.025 µM | CC1C[C@@]2(CCN1C(=O)c1ccccc1)O[C@@H]1CC[C@@H](c3cccc(F)c3)N1C2=O (stereo partly drawn) [Example 6.160, (4R,5′S,7a′R)-1-(benzenecarbonyl)-5′-(3-fluorophenyl)-2-methyltetrahydro-3′H-spiro[piperidine-4,2′-pyrrolo[2,1-b] [1,3]oxazol]-3′-one] |
| 0.728 µM | O=C1N2[C@@H](CC[C@H]2c2cc(F)cc(F)c2)OC12CCN(S(=O)(=O)c1ccccc1)CC2 [Example 8.1, (5′S,7a′R)-5′-(3,5-Difluorophenyl)-1-(phenylsulfonyl)tetrahydro-3′H-spiro[piperidine-4,2′-pyrrolo[2,1-b]oxazol]-3′-one] |
| 0.0601 µM | Cc1cnc(C(=O)N2CCC3(CC2)O[C@@H]2CC[C@@H](c4cc(F)cc(F)c4)N2C3=O)cn1 [Example 6.3, (5′S,7a′R)-5′-(3,5-difluorophenyl)-1-(5-methylpyrazine-2-carbonyl)tetrahydro-3′H-spiro[piperidine-4,2′-pyrrolo[2,1-b] [1,3]oxazol]-3′-one] |
| < 0.025 µM | O=C(c1ccccc1)N1CCC2(CC1)O[C@@H]1CC[C@@H](c3cc(F)cc(F)c3)N1C2=O [Example 1.1, (5′S,7a′R)-1-Benzoyl-5′-(3,5-difluorophenyl)tetrahydro-3′H-spiro[piperidine-4,2′-pyrrolo[2,1-b]oxazol]-3′-one] |
| < 0.025 µM | Cc1cc(N2CCC3(CC2)O[C@@H]2CC[C@@H](c4ccccc4)N2C3=O)nc(C#N)n1 [Example 4.2, 4-methyl-6-[(5′S,7a′R)-3′-oxo-5′-phenyltetrahydro-1H,3′H-spiro[piperidine-4,2′-pyrrolo[2,1-b] [1,3]oxazol]-1-yl]pyrimidine-2-carbonitrile] |
| < 0.025 µM | Cc1cccc(C(=O)N2CCC3(CC2)O[C@@H]2CC[C@@H](c4cc(F)cc(F)c4)N2C3=O)c1F [Example 6.8, (5′S,7a′R)-5′-(3,5-difluorophenyl)-1-(2-fluoro-3-methyl-benzene-1-carbonyl) tetrahydro-3′H-spiro [piperidine-4,2′-pyrrolo[2,1-b][1,3]oxazol]-3′-one] |
| 0.685 µM | Cc1ccccc1S(=O)(=O)N1CCC2(CC1)O[C@@H]1CC[C@@H](c3cc(F)cc(F)c3)N1C2=O [Example 8.2, (5′S,7a′R)-5′-(3,5-difluorophenyl)-1-[(2-methylphenyl)sulfonyl] tetrahydro-3′H-spiro[piperidine-4,2′-pyrrolo[2,1-b][1,3]oxazol]-3′-one] |
| 0.188 µM | O=C1N2[C@@H](CC[C@H]2c2cc(F)cc(F)c2)OC12CCN(c1nccn3ccnc13)CC2 [Example 13.15, (5′S,7a′R)-5′-(3,5-difluorophenyl)-1-(imidazo[1,2-a]pyrazin-8-yl)tetrahydro-3′H-spiro[piperidine-4,2′-pyrrolo[2,1-b]oxazol]-3′-one, TFA salt] |
| 0.0692 µM | Cc1ccccc1C(=O)N1CCC2(CC1)O[C@@H]1CC[C@@H](c3cc(F)cc(F)c3)N1C2=O [Example 6.11, (5′S,7a′R)-5′-(3,5-difluorophenyl)-1-(2-methybenzene-1-carbonyl)tetrahydro-3′H-spiro[piperidine-4,2′-pyrrolo[2,1-b] [1,3]oxazol]-3′-one] |
| 0.0334 µM | O=C(c1cc(F)ccc1Cl)N1CCC2(CC1)O[C@@H]1CC[C@@H](c3ccccc3F)N1C2=O [Example 1.15, (5′S,7a′R)-1-(2-chloro-5-fluorobenzoyl)-5′-(2-fluorophenyl)tetrahydro-3′H-spiro[piperidine-4,2′-pyrrolo[2,1-b]oxazol]-3′-one] |
| 0.738 µM | O=C(c1cnn2c1CSCC2)N1CCC2(CC1)O[C@@H]1CC[C@@H](c3cc(F)cc(F)c3)N1C2=O [Example 6.39, (5′S,7a′R)-5′-(3,5-difluorophenyl)-1-(6,7-dihydro-4H-pyrazolo-[5,1-c][1,4]thiazine-3-carbonyl)tetrahydro-3′H-spiro[piperidine-4,2′-pyrrolo[2,1-b] [1,3]oxazol]-3′-one] |
| < 0.025 µM | O=C1N2[C@H](OC13CCN(c1ccnc4c(F)cnn14)CC3)[C@H](O)C[C@H]2c1ccccc1 [Example 4.149, (5′S,7′R,7a′R)-1-(3-fluoropyrazolo[1,5-a]pyrimidin-7-yl)-7′-hydroxy-5′-phenyltetrahydro-3′H-spiro[piperidine-4,2′-pyrrolo[2,1-b] [1,3]oxazol]-3′-one] |
| 0.025 µM | O=C(c1nccs1)N1CCC2(CC1)O[C@@H]1CC[C@@H](c3cc(F)cc(F)c3)N1C2=O [Example 5.35, (5′S,7a′R)-5′-(3,5-difluoro-phenyl)-1-(thiazole-2-carbonyl)tetrahydro-3′H-spiro[piperidine-4,2′-pyrrolo[2,1-b]oxazol]-3′-one] |
| < 0.025 µM | C#Cc1cnc(N2CCC3(CC2)O[C@@H]2CC[C@@H](c4ccccc4)N2C3=O)n2ncnc12 [Example 21.23, (5′S,7a′R)-1-(8-ethynyl[1,2,4]triazolo [1,5-c]pyrimidin-5-yl)-5′-phenyltetrahydro-3′H-spiro[piperidine-4,2′-pyrrolo[2,1-b][1,3]oxazol]-3′-one] |
| < 0.025 µM | N#Cc1cc(C(=O)N2CCC3(CC2)O[C@@H]2CC[C@@H](c4cc(F)cc(F)c4)N2C3=O)ccc1F [Example 5.14, 5-((5′S,7a′R)-5′-(3,5-difluorophenyl)-3′-oxo-tetrahydro-3′H-spiro [piperidine-4,2′-pyrrolo-[2,1-b]oxazole]-1-carbon-yl)-2-fluorobenzonitrile] |
| 0.934 µM | N#Cc1cccnc1C(=O)N1CCC2(CC1)O[C@@H]1CC[C@@H](c3cc(F)cc(F)c3)N1C2=O [Example 6.103, 2-[(5′S,7a′R)-5′-(3,5-difluorophenyl)-3 oxotetrahydro-1H,3′H-spiro[piperidine-4,2′-pyrrolo[2,1-b][1,3]-oxazole]-1-carbonyl]-pyridine-3-carbonitrile] |
| < 0.025 µM | O=C(c1cccc(F)c1)N1CCC2(CC1)O[C@@H]1CC[C@@H](c3cc(F)cc(F)c3)N1C2=O [Example 7.5, (5′S,7a′R)-5′-(3,5-difluorophenyl)-1-(3-fluorobenzene-1-carbonyl)tetrahydro-3′H-spiro[piperidine-4,2′-pyrrolo[2,1-b][1,3]oxazol]-3′-one] |

| SMILES | EC50 |
| --- | --- |
| O=C1N2[C@@H](CC[C@H]2c2cc(F)cc(F)c2)OC12CC1CCC(C2)N1c1ccnc2c(F)cnn12 (stereo partly drawn) [Example 4.254, (5′S,7a′R)-5′-(3,5-difluorophenyl)-8-(3-fluoropyrazolo[1,5-a]pyrimidin-7-yl)tetrahydro-3′H-spiro[8-azabicyclo[3.2.1]octane-3,2′-pyrrolo[2,1-b] [1,3]oxazol]-3′-one] | 0.126 µM |
